For assay [1], the system named is BT-474. The experiment in a line: Pan-caspase activation, ApoStat staining, flow cytometry. The settings on record: BT-474, IC50 for 72 h. The class given is cell-based, human. Set-up: key: ↑: induction; ↓: inhibition; ↔: no effect. The method, then:
(§1) Cells were seeded in 6-well plates and incubated for 24 h under standard culture conditions. […] For the analyses of pan-caspase activation, the cell suspension was centrifuged for 3 min at 800 rpm, and the cell pellet was stained with 100 µL of ApoStat working solution (1 µL of ApoStat and 5% (v/v) FCS in 100 µL of PBS). Cells were incubated for 30 min under standard culture conditions. The cell suspension was centrifuged for 3 min at 800 rpm, and the cell pellet was washed with 1 mL of fresh PBS. Finally, all samples were analyzed by using flow cytometry (FACSAria III, BD Biosciences, New Jersey, USA).
For orientation: Flow cytometry measures light scatter and fluorescence of single cells or particles in a stream.

Assay [2] deals with HCC1937. The assay is described as above. The class given is cell-based, human. Also on record: key: ↑: induction; ↓: inhibition; ↔: no effect. The settings on record: HCC1937, IC50 for 72 h. The method, then:
as §1

Assay [3] relates to MDA-MB-468. Described as above. The assay is classed as cell-based, human. Set-up: key: ↑: induction; ↓: inhibition; ↔: no effect. The settings on record: MDA-MB-468, IC50 for 72 h. The method, then: as §1
Assay [4] concerns MCF-7. The assay is described as above. The assay is classed as cell-based, human. Also on record: key: ↑: induction; ↓: inhibition; ↔: no effect. The settings on record: MCF-7, IC50 for 72 h. The method, then:
as §1

Assay [5] deals with BT-474. Kind of assay: Crystal violet (CV) cell viability assay, IC50 determination. The class given is cell-based. To be noted: Homo sapiens, 72 h treatment, mean ± SD. The method, then:
(§2) For initial testing of the cytotoxic effect of the available glycophymine compounds (Table S2), cells were treated with compound in three concentrations: 1, 10 and 50 µM. Cells were seeded in 96-well plates and allowed to adhere overnight. Then they were treated for 72 h under standard culture conditions. […] For IC50 determination, the compounds were tested at seven concentrations (0.78, 1.56, 3.13, 6.25, 12.5, 25 and 50 µM). Subsequently, the cell viability was determined by using the crystal violet (CV) assay. Moreover, the selected compounds were tested against the mouse breast cancer cell line 4T1 (TNBC) as well. The compounds were prepared initially to obtain a stock solution of 20 mM in DMSO. Later, the working solutions were prepared by mixing the required amount of DMSO stock with the optimal medium for each cell line. The DMSO concentration in the final solution was always maintained lower than 0.5% to avoid any DMSO-derived side effects.
(§3) For CV assays, after 72 h treatment, the treatment medium was discarded from the 96-well plates, and the cells were washed using 50 µL of PBS. Cells were fixed by adding 50 µL of 4% (v/v) paraformaldehyde (PFA) in PBS for 15 min at room temperature (RT). Afterwards, PFA was discarded, and the plates were dried for 15 min at RT. 50 µL of CV working solution (0.1% w/v CV in PBS) were added to the wells, followed by 15 min incubation at RT. Subsequently, the CV solution was discarded, and the plates were washed using aqua bidest. (ddH2O) to remove any remaining CV solution. The plates were left to dry overnight at RT, and then 50 µL of 33% (v/v) acetic acid in ddH2O were added to each well. Finally, the absorbance was measured at 570 nm by using a SpectraMax M5 plate reader (Molecular Devices, California, USA) and at 670 nm as background wavelength. […] Additionally, gefitinib, an approved EGFR inhibitor of the quinazoline family, was tested as anti-proliferative positive control. The data represent the mean ± standard deviation derived from three independent biological replicates. Dose–response curves were generated by four-parametric non-linear regression analysis using the GraphPad Prism software (version: 10.1, San Diego, CA, USA). Based on that, IC50 values and standard deviations were calculated for each replicate individually.

The subject of assay [6] is HCC1937. Described as above. To be noted: Homo sapiens, 72 h treatment, mean ± SD. The class given is cell-based. The method, then:
as §2, §3

The subject of assay [7] is MCF-7. Described as above. The class given is cell-based. The settings on record: Homo sapiens, MCF7, 72 h treatment, mean ± SD. The method, then: as §2, §3
For assay [8], the system named is 4T1. The assay is described as above. To be noted: Mus musculus, 72 h treatment, mean ± SD. The assay is classed as cell-based. The method, then:
as §2, §3

The test system of assay [9] is BT-474. Kind of assay: ROS production, DHR staining, flow cytometry. The assay is classed as cell-based, human. Also on record: key: ↑: induction; ↓: inhibition; ↔: no effect. To be noted: BT-474, IC50 for 72 h. The method, then: (§4) The cells were stained with CFSE (1 µM) in PBS containing 0.1% (v/v) FCS for 10 min. Afterwards, cells were washed with PBS, and then seeded with growth medium in 6-well plates. The plates were incubated for 24 h under standard culture conditions. […] Subsequently, the cells were detached using 0.5 mL of 0.05% (v/v) Trypsin–EDTA for 3 min at 37 °C. Then trypsin was deactivated by the addition of FCS-containing growth medium. The cell suspensions were collected, centrifuged for 3 min at 800 rpm, and the cell pellets were resuspended in fresh PBS. Finally, the samples were analyzed by using flow cytometry. For ROS production analyses, the procedure was performed exactly as described above for the cell division experiments, except that the CFSE staining solution was replaced by DHR staining solution resulting in 1 µM of DHR in PBS containing 0.1% (v/v) FCS[34],[35].

Assay [10] deals with HCC1937. The experiment in a line: ROS production, DHR staining, flow cytometry. Set-up: key: ↑: induction; ↓: inhibition; ↔: no effect. The settings on record: HCC1937, IC50 for 72 h. The class given is cell-based, human. The method, then: as §4
Assay [11] relates to MDA-MB-468. The experiment in a line: ROS production, DHR staining, flow cytometry. The assay is classed as cell-based, human. Set-up: key: ↑: induction; ↓: inhibition; ↔: no effect. The settings on record: MDA-MB-468, IC50 for 72 h. The method, then:
as §4

Assay [12] has as its system MCF-7. Kind of assay: ROS production, DHR staining, flow cytometry. The class given is cell-based, human. Set-up: key: ↑: induction; ↓: inhibition; ↔: no effect. To be noted: MCF-7, IC50 for 72 h. The method, then: as §4
Assay [13] deals with 4T1. Kind of assay: ROS production, DHR staining, flow cytometry. The class given is cell-based, mouse. Set-up: key: ↑: induction; ↓: inhibition; ↔: no effect. The settings on record: 4T1, IC50 for 72 h. The method, then: as §4
Another assay deals with 184B5. Kind of assay: CV cell viability assay on healthy breast cell line. The assay is classed as cell-based. To be noted: Homo sapiens, 72 h. The method, then: The cell lines were cultured in standard growth medium consisting of RPMI1640 medium supplemented with 10% (v/v) FCS, 1% (v/v) penicillin/streptomycin and 1% (v/v) glutamine[25]–[29]. Two additional cell lines were included in the study representing non-tumorigenic (“healthy”) breast cells, namely 184B5 and MCF10A. These cell lines were cultured using an Endopan 3 medium kit in accordance with the manufacturer’s instruction. For passaging and seeding, cells were treated as previously described. In brief, seeding was done in low density with 6 × 10^3 cells/100 µL in 96-well plates, and with 1.5 × 10^5 cells/1 mL in 6-well plates. […]
For initial testing of the cytotoxic effect of the available glycophymine compounds (Table S2), cells were treated with compound in three concentrations: 1, 10 and 50 µM. […] Subsequently, the cell viability was determined by using the crystal violet (CV) assay. […]
For CV assays, after 72 h treatment, the treatment medium was discarded from the 96-well plates, and the cells were washed using 50 µL of PBS. […] Finally, the absorbance was measured at 570 nm by using a SpectraMax M5 plate reader (Molecular Devices, California, USA) and at 670 nm as background wavelength. […] Based on that, IC50 values and standard deviations were calculated for each replicate individually.

Assay [14] deals with MDA-MB-468. Kind of assay: Crystal violet (CV) cell viability assay, IC50 determination. The assay is classed as cell-based, human. The method, then: as §2, §3

Data on one molecule can be found in article PMC11568214, “The impact of 9-azaglycophymine and phenylguanidine derivatives on the proliferation of various breast cancer cell lines in vitro and in vivo” (Scientific Reports, 2024).

By IC50 is commonly meant the concentration needed to halve the response being measured. With `O=c1[nH]c(Nc2ccc([N+](=O)[O-])cc2)nc2ccccc12` [Compound 19, 4′-nitro-9-aza-glycophymine], the Pan-caspases entry is reported as “↑” with BT-474 [1], “↑” with HCC1937 [2], “↔” in the assay on MDA-MB-468 [3] and “↔” with MCF-7 [4]. The 50% inhibitory concentration (IC50) in the assay on BT-474 [5] was 4 ± 0.2 µM; with HCC1937 [6], 4.3 ± 0.1 µM; in the assay on MCF-7 [7], 5.5 ± 0.6 µM; in the assay on 4T1 [8], 12.5 ± 3.7 µM; in the assay with 184B5, approximately 4 µM; in the assay on MDA-MB-468 [14] (Homo sapiens, MDA-MB-468, 72 h treatment, mean ± SD), 5.8 ± 0.3 µM. Besides, the ROS entry in the assay with BT-474 [9] is listed as “↓”; in the assay on HCC1937 [10] it was “↓”; in the assay on MDA-MB-468 [11], “↔”; with MCF-7 [12], “↔”; in the assay with 4T1 [13] it was “↔”. Besides, the “toxicity against MDA-MB-468 in comparison to gefitinib” value in the assay on MDA-MB-468 [14] (72 h, Fig. S12) was “nearly three times higher toxicity”.
